The supplement of paper PMC4862054

What was measured:
HDQ-P1 [1] = assay: normalised viability (% of control), CellTiter-Blue; higher = more viable cells (about 100 = DMSO control); settings: 300 nM; incubation time: 72 h
Summary of the method: (§1)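 Plates were quality-checked by Z'-factor and normalised to vehicle (100) and a positive kill control (0). The underlying assay incubated breast cancer cell lines for 72 h on 384-well plates with compound, then added 2.5 µl CellTiter-Blue for 2 h at 37 °C and read at 560/590 nm. The value is normalised viability at a single listed concentration of the series.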

CAL-85-1 [2] = assay: as above; settings: 300 nM; incubation time: 72 h
Summary of the method: as §1

MDA-MB-453 = assay: as above; settings: 300 nM; incubation time: 72 h
Summary of the method: as §1

CAL-148 = assay: as above; settings: 300 nM; incubation time: 72 h
Summary of the method: as §1

HCC1599 [3] = settings: 72 h
Summary of the method: (§2)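 Breast cancer cell lines in 20 µl suspension were seeded onto 384-well plates that already held compound dissolved in 5 µl medium and were incubated for 72 h. Viability was measured by adding 2.5 µl CellTiter-Blue for 2 h at 37 °C and reading fluorescence at 560/590 nm. Each plate was normalised to vehicle and a positive kill control and checked by Z'-factor. EC50 was taken from a fitted percent-inhibition dose-response curve, censored at the highest concentration, and rows with a drug sensitivity score of zero were removed.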

CAL-120 [4] = settings: 72 h
Summary of the method: as §2

MDA-MB-231 [5] = settings: 72 h
Summary of the method: as §2

HCC1143 [6] = settings: 72 h
Summary of the method: as §2

SK-BR-3 = settings: 72 h
Summary of the method: as §2

MDA-MB-468 = settings: 72 h
Summary of the method: as §2

HCC1937 = assay: normalised viability (% of control), CellTiter-Blue; higher = more viable cells (about 100 = DMSO control); settings: incubation time: 72 h
Summary of the method: as §1

HCC1599 [7] = assay: as above; settings: incubation time: 72 h
Summary of the method: as §1

HDQ-P1 [8] = assay: as above; settings: incubation time: 72 h
Summary of the method: as §1

CAL-120 [9] = assay: as above; settings: incubation time: 72 h
Summary of the method: as §1

CAL-85-1 [10] = assay: as above; settings: incubation time: 72 h
Summary of the method: as §1

MDA-MB-231 [11] = assay: as above; settings: incubation time: 72 h
Summary of the method: as §1

HCC1143 [12] = assay: as above; settings: incubation time: 72 h
Summary of the method: as §1

MFM-223 = assay: as above; settings: 10 nM; incubation time: 72 h
Summary of the method: as §1

CCCCC(=O)OCC(=O)[C@]1(O)Cc2c(O)c3c(c(O)c2[C@@H](O[C@H]2C[C@H](NC(=O)C(F)(F)F)[C@H](O)[C@H](C)O2)C1)C(=O)c1c(OC)cccc1C3=O [Valrubicin]
Settings | EC50, CellTiter-Blue viability [nM] | normalised viability [%]
CAL-85-1 [2] | – | 75.1
CAL-120 [4] | 281 | –
CAL-148 | – | 35.5
HCC1143 [6] | 525 | –
HCC1599 [3] | 2320 | –
HDQ-P1 [1] | – | 72
MDA-MB-231 [5] | 721 | –
MDA-MB-453 | – | 73.9
MDA-MB-468 | 369 | –
MFM-223 | – | 92.1
SK-BR-3 | 170 | –

normalised viability [%]
Settings | CAL-85-1 [10] | CAL-120 [9] | HCC1143 [12] | HCC1599 [7] | HCC1937 | HDQ-P1 [8] | MDA-MB-231 [11]
3 nM | 80.8 | – | – | – | – | 96.2 | –
10 nM | – | 96.1 | 97.2 | 79.7 | 96.5 | – | 84.8
30 nM | 81.8 | – | – | – | – | 97.4 | –
100 nM | 81.5 | – | – | – | – | 84.7 | –
1000 nM | – | 31.8 | 47.7 | 67.4 | 30.7 | – | 45.6
10000 nM | – | 15.6 | 24.9 | 40.2 | 19.7 | – | 19.4
